For series [1], the target named is MDR1 (P-glycoprotein) (Homo sapiens (Human), UniProt P08183). The experiment in a line: Pgp Liability MDR1 Er. Format: in vitro ADME. The following applies: MDR1-transfected MDCK line, ratio of permeability Papp BA/AB. An excerpt: (§1) MDR1 Efflux Ratio (MDR Er) from MDR1-transfected MDCK line cell line represents the ratio of permeability, Papp BA/AB.
Series [2] can be described thus: HLM CLint (clearance in human liver microsomes). The series is classed as in vitro ADME. (Microsomes from liver hold many membrane-bound enzymes, among them those of drug oxidation.)
Series [3] has as its system sAPPβ in H4 human neuroglioma cells over-expressing wild-type human APP695. Put plainly: sAPPβ Whole-Cell Assay (WCA). The series is classed as cell-based. As to conditions: 18 h. As for the experimental part:
sAPPβ Whole-Cell Assay (WCA):
sAPPβ, the primary cleavage product of BACE1, was determined in H4 human neuroglioma cells over-expressing the wild-type human APP695. […] The colorimetric reaction was read by an EnVision (PerkinElmer) plate-reader.

Series [4] relates to BACE2/BACE1. Put plainly: BACE2/BACE1 Binding Ratio (scintillation proximity binding assays). More on the design: species or system human. The following applies: ratio of IC50 from respective binding assays, pH 6.0. As for the experimental part:
BACE2/BACE1 Binding Ratio:
The BACE1 and BACE2 binding assays measured beta-site amyloid precursor protein-cleaving enzyme (BACE) binding as a decrease in the counts of radioligand bound in a scintillation proximity assay (SPA). […] Full length human BACE1 or BACE2 over-expressed in HEK cells was prepared by Pfizer scientists. Frozen stock cell paste was reacted in 50 mM sodium acetate buffer (pH=6.0) containing 3H-(4aR,6R,8aS)-8a-(2,4-difluorophenyl)-6-(1-methyl-1H-pyrazol-4-yl)-4,4a,5,6,8,8a-hexahydropyrano[3,4-d][1,3]thiazin-2-amine ligand, SPA bead and 60 μM to 600 pM of test compound in an assay volume of 27 uL. The compound plate also contained positive (BACE inhibitor) and negative (DMSO) control wells. The binding was carried out at room temperature for 30 minutes and then the plates were read on a TriLux Microbeta reader to determine the number of counts bound.
(In a scintillation proximity assay essentially only radioactivity close to the scintillant gives light.)

Series [5] has as its target CYP2D6 (Homo sapiens (Human), UniProt P10635). Put plainly: General Multi-Point Cocktail DDI IC50 Assay (CYP2D6). As for the experimental part:
General Multi-Point Cocktail DDI IC50 Assay Conditions:
The incubation volume is 0.1 mL, utilizing a 384-well plate format. […] Substrate concentrations are near Km values that had been previously determined and incubation times are selected based on determinations of reaction velocity linearity. […] Samples are directly injected on an HPLC/MS/MS system. A Biomek FX workstation is used for liquid handling and sample incubation.

The nature of series [6]: GSH Incubation Assay. The series is classed as in vitro ADME. The following applies: for formation of GSH adducts: following incubations; for Observed GSH adducts: glutathione (50 mM) at 37° C. in buffer for 4 hours. As for the experimental part:
The test compound (10 μM in DMSO) was incubated with L-glutathione (50 mM, prepared in 100 mM potassium phosphate buffer) at 37° C. for 4 hours and then analyzed by HPLC-UV/MS/MS without work-up. Thermo Accela HPLC and Velos Pro Orbitrap Elite (S/N: SN05189B) operating in positive mode with a source voltage of 3.5 kV with data dependant processing. […] Product assignments were based on high resolution mass spectrometer fragmentation.

The test system of series [7] is MDR1 (P-glycoprotein). Put plainly: Pgp Liability MDR1 Er. Format: in vitro ADME. The following applies: dog, MDCK-MDR1.
From the text: as §1

In series [8] the target is BACE1 (Homo sapiens (Human), UniProt P56817). The experiment in a line: BACE1 Cell-Free Assay (fluorescence polarization). As to conditions: geometric mean of 2-4 determinations unless otherwise indicated (b: ≧5 determinations; c: single determination); read-out: BACE 1 Cell-free Assay IC50. Format: biochemical. An excerpt: This assay measures the inhibition of the beta-secretase enzyme as it cleaves a non-native peptide.
BACE1, sequence (P56817 46-457): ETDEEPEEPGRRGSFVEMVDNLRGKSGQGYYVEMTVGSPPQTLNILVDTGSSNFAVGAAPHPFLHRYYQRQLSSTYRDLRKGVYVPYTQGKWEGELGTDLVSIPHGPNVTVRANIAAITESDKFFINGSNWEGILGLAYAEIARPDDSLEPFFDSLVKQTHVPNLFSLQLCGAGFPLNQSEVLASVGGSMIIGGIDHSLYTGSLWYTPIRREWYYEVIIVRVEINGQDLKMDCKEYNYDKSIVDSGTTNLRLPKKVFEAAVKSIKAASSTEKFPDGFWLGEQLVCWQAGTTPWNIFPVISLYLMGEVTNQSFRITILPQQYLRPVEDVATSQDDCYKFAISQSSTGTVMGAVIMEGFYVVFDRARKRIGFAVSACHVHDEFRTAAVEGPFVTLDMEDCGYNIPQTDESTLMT
A synthetic APP substrate that can be cleaved by beta-secretase having N-term inal biotin and made fluorescent by the covalent attachment of Oregon Green at the Cys residue is used to assay beta-secretase activity in the presence or absence of the inhibitory compounds. The substrate is Biotin-[…]-C[Oregon Green]KK-OH. The BACE1 enzyme is affinity purified material from conditioned media of CHO-K1 cells that have been transfected with a soluble BACE construct (BACE1deltaTM96His). […] Plates are covered and incubated for 3 hours at 37° C. […] The activity of the beta-secretase enzyme is detected by changes in the fluorescence polarization that occur when the substrate is cleaved by the enzyme.
For orientation: Polarisation of emitted light reports the rotation of a fluorescent probe.

A value given as a limit tells only on which side of the number the result lay.

In general, IC50 refers to the midpoint of a concentration-inhibition curve. In general, efflux ratio refers to a quotient of directional permeabilities that is used to spot active efflux.

CYP2D6, sequence (P10635 whole entry): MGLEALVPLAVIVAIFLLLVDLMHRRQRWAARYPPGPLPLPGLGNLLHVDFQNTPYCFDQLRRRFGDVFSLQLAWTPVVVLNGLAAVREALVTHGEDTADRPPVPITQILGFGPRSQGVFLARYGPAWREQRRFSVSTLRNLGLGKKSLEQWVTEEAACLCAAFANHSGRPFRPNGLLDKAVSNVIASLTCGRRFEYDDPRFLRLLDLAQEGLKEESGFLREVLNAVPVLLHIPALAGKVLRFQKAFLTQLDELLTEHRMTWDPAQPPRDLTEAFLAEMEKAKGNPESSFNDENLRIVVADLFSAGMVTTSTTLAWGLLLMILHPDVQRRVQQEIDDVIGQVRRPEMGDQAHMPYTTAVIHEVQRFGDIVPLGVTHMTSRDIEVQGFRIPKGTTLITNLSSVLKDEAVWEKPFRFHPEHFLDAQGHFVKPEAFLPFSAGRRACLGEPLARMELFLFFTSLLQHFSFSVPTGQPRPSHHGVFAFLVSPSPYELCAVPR
MDR1 (P-glycoprotein) (Homo sapiens (Human), UniProt P08183), sequence (P08183 whole entry): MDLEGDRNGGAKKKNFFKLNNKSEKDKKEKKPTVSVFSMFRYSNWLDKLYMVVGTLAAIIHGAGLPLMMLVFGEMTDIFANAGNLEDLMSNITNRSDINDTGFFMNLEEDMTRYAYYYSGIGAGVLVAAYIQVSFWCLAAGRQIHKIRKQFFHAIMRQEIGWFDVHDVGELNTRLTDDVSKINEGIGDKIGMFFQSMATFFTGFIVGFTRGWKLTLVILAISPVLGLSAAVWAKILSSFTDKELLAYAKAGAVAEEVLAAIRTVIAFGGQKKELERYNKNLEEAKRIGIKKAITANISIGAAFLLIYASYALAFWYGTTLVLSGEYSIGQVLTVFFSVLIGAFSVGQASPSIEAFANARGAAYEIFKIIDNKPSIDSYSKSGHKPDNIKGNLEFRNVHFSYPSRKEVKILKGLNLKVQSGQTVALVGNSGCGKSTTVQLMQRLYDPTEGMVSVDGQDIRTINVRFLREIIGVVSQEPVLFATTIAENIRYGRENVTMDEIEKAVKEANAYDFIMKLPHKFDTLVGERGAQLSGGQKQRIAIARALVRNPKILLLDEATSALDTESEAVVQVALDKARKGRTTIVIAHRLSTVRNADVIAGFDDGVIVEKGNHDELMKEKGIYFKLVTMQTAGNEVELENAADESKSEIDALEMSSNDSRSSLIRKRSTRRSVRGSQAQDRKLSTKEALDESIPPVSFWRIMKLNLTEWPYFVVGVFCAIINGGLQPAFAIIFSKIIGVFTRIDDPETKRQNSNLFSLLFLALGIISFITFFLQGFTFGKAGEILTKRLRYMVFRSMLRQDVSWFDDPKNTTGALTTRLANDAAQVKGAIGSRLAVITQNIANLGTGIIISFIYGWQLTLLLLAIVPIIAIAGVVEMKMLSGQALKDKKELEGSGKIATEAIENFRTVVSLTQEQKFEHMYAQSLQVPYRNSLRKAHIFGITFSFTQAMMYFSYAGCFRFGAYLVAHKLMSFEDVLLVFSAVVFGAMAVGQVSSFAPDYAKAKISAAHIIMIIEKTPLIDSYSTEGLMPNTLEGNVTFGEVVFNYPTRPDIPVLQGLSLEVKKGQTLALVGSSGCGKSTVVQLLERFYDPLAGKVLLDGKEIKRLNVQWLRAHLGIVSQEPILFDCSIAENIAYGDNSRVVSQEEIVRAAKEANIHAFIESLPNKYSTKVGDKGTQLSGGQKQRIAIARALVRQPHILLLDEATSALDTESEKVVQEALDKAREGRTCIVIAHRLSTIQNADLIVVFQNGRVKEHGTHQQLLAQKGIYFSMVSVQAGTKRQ

For the compound `C[C@H]1C[C@H]2CSC(N)=N[C@@]2(c2nc(NC(=O)c3ccc(OC(F)F)cn3)cs2)CO1` [Comparator 1], the “Pgp liability MDR1 Er” value in series [1] was 7.1.
Consider `C[C@H]1C[C@H]2CSC(N)=N[C@@]2(c2nc(NC(=O)c3ccc(OC(F)F)cn3)ccc2F)CO1` [Comparator 2], for which the “HLM CLint” value in series [2] came out at 22.9 mL/min/kg.
Consider `NC1=N[C@@]2(c3cc(NC(=O)c4ccc(OC(F)F)cn4)ccc3F)COCC[C@H]2CS1` [Comparator 4], for which the IC50 in series [3] is below 1 nM. Moreover, the “HLM CLint” value in series [2] was 8.3 mL/m in/kg mL/min/kg. The “Pgp liability MDR1 Er” value in series [1] is recorded as 6.8.
Compound `NC1=N[C@@]2(c3cc(NC(=O)c4ccc(OC(F)F)cn4)ccc3F)CO[C@@H](C(F)(F)F)C[C@H]2CS1` [Comparator 6] had an IC50 in series [3] below 1 nM. The “BACE2/BACE1 Binding Ratio” value in series [4] worked out at 1.0. The “Pgp liability MDR1 Er” value in series [1] was 3.2.
For the compound `C[C@H]1C[C@H]2CSC(N)=N[C@@]2(c2cc(NC(=O)c3ccc(Cl)cn3)ccc2F)CO1` [Comparator 7], the IC50 in series [3] was below 1 nM. Further, in series [4], the “BACE2/BACE1 Binding Ratio” value is on record as 1.0. The “HLM CLint” value in series [2] is given as 34.4 mL/min/kg.
For `C[C@H]1C[C@H]2CSC(N)=N[C@@]2(c2nc(NC(=O)c3ccc(OC(F)F)cn3)cs2)CO1` [Example 1, N-{2-[(4aR,6S,8aR)-2-amino-6-methyl-4,4a,5,6-tetrahydropyrano[3,4-d][1,3]thiazin-8a(8H)-yl]-1,3-thiazol-4-yl}-5-(difluoromethoxy)pyridine-2-carboxamide], the IC50 in series [5] is below 30 µM. In addition, in series [6], the “formation of GSH adducts” value is listed as “not detected” and the “Observed GSH adducts” value is given as “Negative”.
`C[C@H]1C[C@H]2CSC(N)=N[C@@]2(c2nc(NC(=O)c3cnc(OC(F)F)cn3)cs2)CO1` [Example 2, N-{2-[(4aR,6S,8aR)-2-amino-6-methyl-4,4a,5,6-tetrahydropyrano[3,4-d][1,3]thiazin-8a(8H)-yl]-1,3-thiazol-4-yl}-5-(difluoromethoxy)pyrazine-2-carboxamide] had an IC50 in series [5] below 30 µM. In series [6], the “formation of GSH adducts” value is on record as “not detected” and the “Observed GSH adducts” value is on record as “Negative”. In series [7], the efflux ratio is below 2.5.
With `C[C@H]1C[C@H]2CSC(N)=N[C@@]2(c2nc(NC(=O)c3coc(CF)n3)cs2)CO1` [Example 3, N-{2-[(4aR,6S,8aR)-2-amino-6-methyl-4,4a,5,6-tetrahydropyrano[3,4-d][1,3]thiazin-8a(8H)-yl]-1,3-thiazol-4-yl}-2-(fluoromethyl)-1,3-oxazole-4-carboxamide], in series [8], the IC50 was found to be 0.7 nM.
Same read-out and setting: then `C[C@H]1C[C@H]2CSC(N)=N[C@@]2(c2nc(NC(=O)c3ccn(C(F)F)n3)cs2)CO1` [Example 4, N-{2-[(4aR,6S,8aR)-2-amino-6-methyl-4,4a,5,6-tetrahydropyrano[3,4-d][1,3]thiazin-8a(8H)-yl]-1,3-thiazol-4-yl}-1-(difluoromethyl)-1H-pyrazole-3-carboxamide], with 0.9 nM.
For `C[C@H]1C[C@H]2CSC(N)=N[C@@]2(c2nc(NC(=O)c3ccc(Cl)cn3)cs2)CO1` [Example 7, N-{2-[(4aR,6S,8aR)-2-amino-6-methyl-4,4a,5,6-tetrahydropyrano[3,4-d][1,3]thiazin-8a(8H)-yl]-1,3-thiazol-4-yl}-5-chloropyridine-2-carboxamide], the IC50 in series [5] is below 30 µM. Besides, in series [6], the “formation of GSH adducts” value was “not detected” and the “Observed GSH adducts” value is recorded as “Negative”.
`Cc1cc(OC(F)F)cnc1C(=O)Nc1csc([C@]23CO[C@@H](C)C[C@H]2CSC(N)=N3)n1` [Example 45, N-{2-[(4aR,6S,8aR)-2-amino-6-methyl-4,4a,5,6-tetrahydropyrano[3,4-d][1,3]thiazin-8a(8H)-yl]-1,3-thiazol-4-yl}-5-(difluoromethoxy)-3-methylpyridine-2-carboxamide]: in series [5], the IC50 is below 30 µM. Besides, in series [6], the “formation of GSH adducts” value is reported as “not detected” and the “Observed GSH adducts” value is given as “Negative”.

(Values after US9605007B2, “2-amino-6-methyl-4,4a,5,6-tetrahydropyrano[3,4-d][1,3]thiazin-8a(8H)-yl-1,3-thiazol-4-yl amides” (Pfizer Inc., priority 2014, dated 2017).)
